According to patent US9828360B2 (Array BioPharma Inc., priority 2012, dated 2017):

Tests used:
Experiment in all cases: KinaseProfiler off-target kinase profiling
Type in all cases: biochemical
Details in all cases: 10 μM, ATP near Km
GRK5 = target: T1, GRK5 (Homo sapiens, UniProt P34947)
T1 construct: purchased Millipore, Inc. (KinaseProfiler service)
In short: (§1)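 Read-out: percent of control, mean of duplicate wells. Compound at 10 μM; ATP set close to each kinase's Km.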

CAMK4 = target: T2, CAMK4 (Homo sapiens, UniProt Q16566)
T2 construct: purchased Millipore, Inc. (KinaseProfiler service)
In short: as §1

BrSK2 = target: T3, BrSK2 (Homo sapiens, UniProt Q8IWQ3)
T3 construct: purchased Millipore, Inc. (KinaseProfiler service)
In short: as §1

AMPK (A1/B1/G1) = target: T4, AMPK (A1/B1/G1) (Homo sapiens, UniProt Q13131)
T4 construct: purchased Millipore, Inc. (KinaseProfiler service)
In short: as §1

PrKX = target: T5, PrKX (Homo sapiens, UniProt P51817)
T5 construct: purchased Millipore, Inc. (KinaseProfiler service)
In short: as §1

Abl2 = target: T6, Abl2 (Homo sapiens, UniProt P42684)
T6 construct: purchased Millipore, Inc. (KinaseProfiler service)
In short: as §1

CDK6/cyclinD3 = target: T7, CDK6/cyclinD3 (Homo sapiens, UniProt Q00534)
T7 construct: purchased Millipore, Inc. (KinaseProfiler service)
In short: as §1

TBK1 = target: T8, TBK1 (Homo sapiens, UniProt Q9UHD2)
T8 construct: purchased Millipore, Inc. (KinaseProfiler service)
In short: as §1

Pim-2 = target: T9, Pim-2 (Homo sapiens, UniProt Q9P1W9)
T9 construct: purchased Millipore, Inc. (KinaseProfiler service)
In short: as §1

HIPK2 = target: T10, HIPK2 (Homo sapiens, UniProt Q9H2X6)
T10 construct: purchased Millipore, Inc. (KinaseProfiler service)
In short: as §1

Met = target: T11, Met (Homo sapiens, UniProt P08581)
T11 construct: purchased Millipore, Inc. (KinaseProfiler service)
In short: as §1

JNK2alpha2 = target: T12, JNK2alpha2 (Homo sapiens, UniProt P45984)
T12 construct: purchased Millipore, Inc. (KinaseProfiler service)
In short: as §1

CAMK2d = target: T13, CAMK2d (Homo sapiens, UniProt Q13557)
T13 construct: purchased Millipore, Inc. (KinaseProfiler service)
In short: as §1

TSSK1 = target: T14, TSSK1 (Homo sapiens, UniProt Q9BXA7)
T14 construct: purchased Millipore, Inc. (KinaseProfiler service)
In short: as §1

PAK5 = target: T15, PAK5 (Homo sapiens, UniProt Q9P286)
T15 construct: purchased Millipore, Inc. (KinaseProfiler service)
In short: as §1

ULK2 = target: T16, ULK2 (Homo sapiens, UniProt Q8IYT8)
T16 construct: purchased Millipore, Inc. (KinaseProfiler service)
In short: as §1

MKNK2 = target: T17, MKNK2 (Homo sapiens, UniProt Q9HBH9)
T17 construct: purchased Millipore, Inc. (KinaseProfiler service)
In short: as §1

DYRK2 = target: T18, DYRK2 (Homo sapiens, UniProt Q92630)
T18 construct: purchased Millipore, Inc. (KinaseProfiler service)
In short: as §1

Syk = target: T19, Syk (Homo sapiens, UniProt P43405)
T19 construct: purchased Millipore, Inc. (KinaseProfiler service)
In short: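 Panel-wide off-target screen: one concentration (10 μM), duplicate determinations, ATP approximately at Km for the individual kinase; output POC, duplicate mean.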

PKCeta = target: T20, PKCeta (Homo sapiens, UniProt P24723)
T20 construct: purchased Millipore, Inc. (KinaseProfiler service)
In short: as §1

SRC = target: T21, SRC (Homo sapiens, UniProt P12931)
T21 construct: purchased Millipore, Inc. (KinaseProfiler service)
In short: as §1

Axl = target: T22, Axl (Homo sapiens, UniProt P30530)
T22 construct: purchased Millipore, Inc. (KinaseProfiler service)
In short: as §1

p38alpha = target: T23, p38alpha (Homo sapiens, UniProt Q16539)
T23 construct: purchased Millipore, Inc. (KinaseProfiler service)
In short: as §1

MELK = target: T24, MELK (Homo sapiens, UniProt Q14680)
T24 construct: purchased Millipore, Inc. (KinaseProfiler service)
In short: as §1

GSK3beta = target: T25, GSK3beta (Homo sapiens, UniProt P49841)
T25 construct: purchased Millipore, Inc. (KinaseProfiler service)
In short: as §1

CDK5/p35 = target: T26, CDK5/p35 (Homo sapiens, UniProt Q00535)
T26 construct: purchased Millipore, Inc. (KinaseProfiler service)
In short: as §1

p38beta = target: T27, p38beta (Homo sapiens, UniProt Q15759)
T27 construct: purchased Millipore, Inc. (KinaseProfiler service)
In short: as §1

eEF-2K = target: T28, eEF-2K (Homo sapiens, UniProt O00418)
T28 construct: purchased Millipore, Inc. (KinaseProfiler service)
In short: as §1

PKCzeta = target: T29, PKCzeta (Homo sapiens, UniProt Q05513)
T29 construct: purchased Millipore, Inc. (KinaseProfiler service)
In short: as §1

CHK1 = target: T30, CHK1 (Homo sapiens, UniProt O14757)
T30 construct: purchased Millipore, Inc. (KinaseProfiler service)
In short: as §1

p38delta = target: T31, p38delta (Homo sapiens, UniProt O15264)
T31 construct: purchased Millipore, Inc. (KinaseProfiler service)
In short: as §1

DCAMKL2 = target: T32, DCAMKL2 (Homo sapiens, UniProt Q8N568)
T32 construct: purchased Millipore, Inc. (KinaseProfiler service)
In short: as §1

Yes = target: T33, Yes (Homo sapiens, UniProt P07947)
T33 construct: purchased Millipore, Inc. (KinaseProfiler service)
In short: as §1

PRKG1beta = target: T34, PRKG1beta (Homo sapiens, UniProt Q13976)
T34 construct: purchased Millipore, Inc. (KinaseProfiler service)
In short: as §1

NEK11 = target: T35, NEK11 (Homo sapiens, UniProt Q8NG66)
T35 construct: purchased Millipore, Inc. (KinaseProfiler service)
In short: as §1

STK33 = target: T36, STK33 (Homo sapiens, UniProt Q9BYT3)
T36 construct: purchased Millipore, Inc. (KinaseProfiler service)
In short: as §1

IR Activated = target: T37, IR Activated (Homo sapiens, UniProt P06213)
T37 construct: purchased Millipore, Inc. (KinaseProfiler service)
In short: as §1

CK1gamma1 = target: T38, CK1gamma1 (Homo sapiens, UniProt Q9HCP0)
T38 construct: purchased Millipore, Inc. (KinaseProfiler service)
In short: as §1

PKCbetaI = target: T39, PKCbetaI (Homo sapiens, UniProt P05771)
T39 construct: purchased Millipore, Inc. (KinaseProfiler service)
In short: as §1

EphB2 = target: T40, EphB2 (Homo sapiens, UniProt P29323)
T40 construct: purchased Millipore, Inc. (KinaseProfiler service)
In short: as §1

EphA4 = target: T41, EphA4 (Homo sapiens, UniProt P54764)
T41 construct: purchased Millipore, Inc. (KinaseProfiler service)
In short: as §1

T37 sequence (P06213 28-1382): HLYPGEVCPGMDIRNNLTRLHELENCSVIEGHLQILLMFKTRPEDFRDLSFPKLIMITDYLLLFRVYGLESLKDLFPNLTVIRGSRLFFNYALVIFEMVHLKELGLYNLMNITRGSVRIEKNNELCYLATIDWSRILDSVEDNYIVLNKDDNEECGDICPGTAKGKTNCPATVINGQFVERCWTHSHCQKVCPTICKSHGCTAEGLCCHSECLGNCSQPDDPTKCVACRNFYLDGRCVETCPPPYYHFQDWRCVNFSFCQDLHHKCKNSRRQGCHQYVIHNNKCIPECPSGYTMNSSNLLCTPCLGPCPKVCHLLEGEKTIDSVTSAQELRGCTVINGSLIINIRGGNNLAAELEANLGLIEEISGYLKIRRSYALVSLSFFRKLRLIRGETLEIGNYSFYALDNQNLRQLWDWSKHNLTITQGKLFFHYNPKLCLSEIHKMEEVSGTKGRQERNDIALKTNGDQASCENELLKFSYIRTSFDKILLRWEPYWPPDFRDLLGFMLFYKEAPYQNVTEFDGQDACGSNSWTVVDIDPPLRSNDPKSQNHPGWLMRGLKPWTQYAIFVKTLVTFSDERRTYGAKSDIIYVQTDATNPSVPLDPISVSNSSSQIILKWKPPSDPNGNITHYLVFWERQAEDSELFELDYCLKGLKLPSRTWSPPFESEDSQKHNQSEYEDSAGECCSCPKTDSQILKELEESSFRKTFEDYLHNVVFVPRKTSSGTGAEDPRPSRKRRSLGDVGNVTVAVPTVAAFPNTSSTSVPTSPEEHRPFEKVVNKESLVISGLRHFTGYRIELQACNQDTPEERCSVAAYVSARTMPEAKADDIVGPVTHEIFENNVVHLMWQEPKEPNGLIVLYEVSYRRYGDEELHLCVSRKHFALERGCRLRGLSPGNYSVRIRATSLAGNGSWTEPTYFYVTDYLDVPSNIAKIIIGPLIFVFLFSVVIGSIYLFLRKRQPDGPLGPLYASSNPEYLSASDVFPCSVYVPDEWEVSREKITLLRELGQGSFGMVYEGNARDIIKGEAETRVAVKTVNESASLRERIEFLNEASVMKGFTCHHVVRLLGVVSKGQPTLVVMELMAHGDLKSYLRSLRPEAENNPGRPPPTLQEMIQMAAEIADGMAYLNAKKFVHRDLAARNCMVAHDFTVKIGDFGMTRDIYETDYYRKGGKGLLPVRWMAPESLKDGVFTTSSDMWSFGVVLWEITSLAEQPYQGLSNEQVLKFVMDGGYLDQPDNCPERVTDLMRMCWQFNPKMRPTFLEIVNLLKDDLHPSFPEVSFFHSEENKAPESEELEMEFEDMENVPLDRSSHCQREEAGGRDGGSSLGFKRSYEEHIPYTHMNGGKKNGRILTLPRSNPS
T30 sequence (O14757 whole entry): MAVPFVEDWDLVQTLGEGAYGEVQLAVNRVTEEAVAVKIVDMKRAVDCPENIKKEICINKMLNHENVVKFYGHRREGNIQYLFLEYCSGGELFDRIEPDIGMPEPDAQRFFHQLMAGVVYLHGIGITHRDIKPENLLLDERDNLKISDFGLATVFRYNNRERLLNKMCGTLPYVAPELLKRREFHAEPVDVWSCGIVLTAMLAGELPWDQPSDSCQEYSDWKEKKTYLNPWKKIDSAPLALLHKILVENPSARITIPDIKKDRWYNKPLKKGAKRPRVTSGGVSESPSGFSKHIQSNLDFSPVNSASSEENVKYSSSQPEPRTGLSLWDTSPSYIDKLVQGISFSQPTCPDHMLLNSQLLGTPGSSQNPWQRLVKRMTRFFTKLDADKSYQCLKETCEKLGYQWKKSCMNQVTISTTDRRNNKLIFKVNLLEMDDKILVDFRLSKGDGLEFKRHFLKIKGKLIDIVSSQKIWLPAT
T16 sequence (Q8IYT8 whole entry): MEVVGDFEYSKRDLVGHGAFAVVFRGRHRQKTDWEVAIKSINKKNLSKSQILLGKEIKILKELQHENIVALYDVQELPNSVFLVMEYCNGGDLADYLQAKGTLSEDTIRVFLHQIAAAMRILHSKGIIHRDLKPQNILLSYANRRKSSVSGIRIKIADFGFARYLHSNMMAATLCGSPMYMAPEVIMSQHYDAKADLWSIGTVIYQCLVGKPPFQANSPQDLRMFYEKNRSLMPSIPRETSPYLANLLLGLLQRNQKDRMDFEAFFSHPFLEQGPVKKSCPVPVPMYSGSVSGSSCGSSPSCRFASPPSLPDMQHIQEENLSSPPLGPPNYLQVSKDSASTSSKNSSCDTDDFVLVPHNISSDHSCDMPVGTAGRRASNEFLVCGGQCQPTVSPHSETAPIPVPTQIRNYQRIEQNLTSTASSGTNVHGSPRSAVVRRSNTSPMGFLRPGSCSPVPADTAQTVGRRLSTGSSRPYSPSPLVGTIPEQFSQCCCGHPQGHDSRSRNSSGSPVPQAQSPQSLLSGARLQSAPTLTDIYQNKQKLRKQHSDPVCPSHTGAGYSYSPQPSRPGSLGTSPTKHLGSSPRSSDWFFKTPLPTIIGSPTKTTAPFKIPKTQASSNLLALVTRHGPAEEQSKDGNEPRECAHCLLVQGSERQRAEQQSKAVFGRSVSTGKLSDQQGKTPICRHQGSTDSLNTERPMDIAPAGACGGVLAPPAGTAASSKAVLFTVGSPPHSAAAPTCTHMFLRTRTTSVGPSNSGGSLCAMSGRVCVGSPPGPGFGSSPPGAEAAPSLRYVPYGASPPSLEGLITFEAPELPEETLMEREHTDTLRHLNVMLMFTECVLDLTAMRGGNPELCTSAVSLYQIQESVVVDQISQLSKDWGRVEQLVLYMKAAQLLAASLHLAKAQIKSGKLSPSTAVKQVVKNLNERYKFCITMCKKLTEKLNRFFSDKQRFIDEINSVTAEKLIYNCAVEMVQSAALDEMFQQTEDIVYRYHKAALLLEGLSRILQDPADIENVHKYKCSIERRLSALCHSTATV
T2 sequence (Q16566 whole entry): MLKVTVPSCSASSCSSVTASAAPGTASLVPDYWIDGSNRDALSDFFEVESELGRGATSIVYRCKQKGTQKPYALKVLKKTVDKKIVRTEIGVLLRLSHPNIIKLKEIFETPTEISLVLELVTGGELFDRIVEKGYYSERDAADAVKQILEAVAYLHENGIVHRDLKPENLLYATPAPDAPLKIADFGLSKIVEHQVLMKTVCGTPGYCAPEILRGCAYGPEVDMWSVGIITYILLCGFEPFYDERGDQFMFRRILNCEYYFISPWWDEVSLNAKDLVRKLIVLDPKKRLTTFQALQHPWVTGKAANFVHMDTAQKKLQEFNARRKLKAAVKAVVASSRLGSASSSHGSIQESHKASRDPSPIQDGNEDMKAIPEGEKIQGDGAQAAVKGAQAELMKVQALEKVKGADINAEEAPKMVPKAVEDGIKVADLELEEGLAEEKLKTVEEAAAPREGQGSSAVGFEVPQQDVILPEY
T7 sequence (Q00534 whole entry): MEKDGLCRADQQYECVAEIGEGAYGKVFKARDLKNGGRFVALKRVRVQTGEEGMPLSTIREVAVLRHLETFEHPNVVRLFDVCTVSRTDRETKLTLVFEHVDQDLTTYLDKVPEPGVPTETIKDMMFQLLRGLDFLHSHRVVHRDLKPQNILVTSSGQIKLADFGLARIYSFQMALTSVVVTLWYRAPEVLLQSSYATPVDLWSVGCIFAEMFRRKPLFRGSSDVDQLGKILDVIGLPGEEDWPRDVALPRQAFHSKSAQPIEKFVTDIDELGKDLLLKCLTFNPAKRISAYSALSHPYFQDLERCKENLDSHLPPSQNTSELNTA
T7 sequence (P30281 whole entry partner): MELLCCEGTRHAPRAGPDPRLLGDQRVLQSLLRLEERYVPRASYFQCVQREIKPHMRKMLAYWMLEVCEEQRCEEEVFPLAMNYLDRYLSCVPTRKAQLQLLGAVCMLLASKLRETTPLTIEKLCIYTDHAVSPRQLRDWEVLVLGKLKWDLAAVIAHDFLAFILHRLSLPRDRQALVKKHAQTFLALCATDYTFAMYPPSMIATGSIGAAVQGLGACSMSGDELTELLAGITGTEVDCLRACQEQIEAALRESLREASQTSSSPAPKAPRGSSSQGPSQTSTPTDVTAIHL
T8 sequence (Q9UHD2 whole entry): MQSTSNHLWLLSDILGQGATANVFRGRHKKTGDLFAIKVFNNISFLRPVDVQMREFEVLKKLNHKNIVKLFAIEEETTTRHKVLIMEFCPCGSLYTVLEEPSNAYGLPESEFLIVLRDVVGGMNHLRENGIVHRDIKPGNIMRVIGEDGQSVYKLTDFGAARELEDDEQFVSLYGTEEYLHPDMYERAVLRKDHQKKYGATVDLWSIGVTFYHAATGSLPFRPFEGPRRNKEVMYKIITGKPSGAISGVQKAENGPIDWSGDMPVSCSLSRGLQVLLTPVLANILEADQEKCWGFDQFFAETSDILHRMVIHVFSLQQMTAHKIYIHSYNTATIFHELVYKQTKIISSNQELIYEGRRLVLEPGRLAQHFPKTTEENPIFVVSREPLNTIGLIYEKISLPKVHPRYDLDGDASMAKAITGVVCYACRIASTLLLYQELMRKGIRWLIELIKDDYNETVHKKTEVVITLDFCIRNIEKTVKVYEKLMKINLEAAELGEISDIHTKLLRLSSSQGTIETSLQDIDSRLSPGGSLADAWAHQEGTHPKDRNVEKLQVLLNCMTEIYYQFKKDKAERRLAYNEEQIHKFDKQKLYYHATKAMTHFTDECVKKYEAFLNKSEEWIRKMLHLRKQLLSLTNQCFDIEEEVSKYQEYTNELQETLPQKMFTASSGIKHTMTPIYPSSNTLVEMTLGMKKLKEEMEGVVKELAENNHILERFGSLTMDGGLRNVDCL
T31 sequence (O15264 whole entry): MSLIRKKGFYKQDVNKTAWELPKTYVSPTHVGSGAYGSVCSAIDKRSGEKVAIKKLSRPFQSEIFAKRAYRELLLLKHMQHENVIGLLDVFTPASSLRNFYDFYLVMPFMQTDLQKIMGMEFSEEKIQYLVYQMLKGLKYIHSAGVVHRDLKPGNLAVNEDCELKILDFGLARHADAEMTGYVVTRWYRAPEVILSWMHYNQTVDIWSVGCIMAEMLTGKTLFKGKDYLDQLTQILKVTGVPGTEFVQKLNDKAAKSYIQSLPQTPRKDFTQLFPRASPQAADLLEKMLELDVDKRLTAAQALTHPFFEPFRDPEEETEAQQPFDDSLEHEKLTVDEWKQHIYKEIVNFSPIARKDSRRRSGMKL

Structure (SMILES): COCCN1C[C@@H](NC(=O)Nc2sc(C(C)C)nc2-c2ccccc2)[C@H](c2ccccc2)C1 [Example 48, 1-(2-isopropyl-4-phenylthiazol-5-yl)-3-((3S,4R)-1-(2-methoxyethyl)-4-phenylpyrrolidin-3-yl)urea]
- Avg POC (GRK5): 106.5% of control
- Avg POC (CAMK4): 101.5% of control
- Avg POC (BrSK2): 119.5% of control
- Avg POC (AMPK (A1/B1/G1)): 114.5% of control
- Avg POC (PrKX): 122% of control
- Avg POC (Abl2): 124.5% of control
- Avg POC (CDK6/cyclinD3): 112.5% of control
- Avg POC (TBK1): 96.5% of control
- Avg POC (Pim-2): 104% of control
- Avg POC (HIPK2): 103% of control
- Avg POC (Met): 109% of control
- Avg POC (JNK2alpha2): 93.5% of control
- Avg POC (CAMK2d): 99% of control
- Avg POC (TSSK1): 99.5% of control
- Avg POC (PAK5): 113% of control
- Avg POC (ULK2): 98.5% of control
- Avg POC (MKNK2): 96% of control
- Avg POC (DYRK2): 103.5% of control
- Avg POC (Syk): 86.5% of control
- Avg POC (PKCeta): 93% of control
- Avg POC (SRC): 124% of control
- Avg POC (Axl): 113% of control
- Avg POC (p38alpha): 108% of control
- Avg POC (MELK): 89% of control
- Avg POC (GSK3beta): 63% of control
- Avg POC (CDK5/p35): 109.5% of control
- Avg POC (p38beta): 115% of control
- Avg POC (eEF-2K): 116.5% of control
- Avg POC (PKCzeta): 108% of control
- Avg POC (CHK1): 110% of control
- Avg POC (p38delta): 108.5% of control
- Avg POC (DCAMKL2): 142% of control
- Avg POC (Yes): 97.5% of control
- Avg POC (PRKG1beta): 105% of control
- Avg POC (NEK11): 105% of control
- Avg POC (STK33): 110% of control
- Avg POC (IR Activated): 111.5% of control
- Avg POC (CK1gamma1): 116% of control
- Avg POC (PKCbetaI): 97% of control
- Avg POC (EphB2): 99.5% of control
- Avg POC (EphA4): 105.5% of control
